# “And” between values parts separate entries of the source, which are not always exact repeats. Equal entries are not always repeated. Where two headings read alike, the source gives them in different places.
# Key:
# [1] = cited from earlier work
# [2] = consumption of lutein and zeaxanthin; Seddon et al., 1994; cited from earlier work
# [3] = Stability of lutein dry cake in essential oils; assay type: physicochemical; conditions: 20 weeks; for trans lutein dropped: accelerated conditions (40° C.); for lutein lost: ambient (25° C.)
# Experimental: Stability experiments were performed with the best group of essential oils and lutein dry cake. Fresh samples were made, placed in amber vials, blanked with argon and placed onto stability at 25° C. and 40° C. after taking initial % carotenoids and % lutein. Bay, cornmint, peppermint, spearmint, tea tree, pure thyme, red thyme, and white thyme oils were all tested up to 20 weeks. FIGS. 1 and 2 show total carotenoids at ambient and FIGS. 3 and 4 show all trans lutein at ambient conditions. Tea tree oil and bay oil had the best stability of total carotenoids and all trans lutein at ambient conditions. Tea tree lost 32% lutein and pure thyme lost 22% lutein after 20 weeks. It should be noted that the oils were not tested at maximum lutein solubility conditions for stability testing.
# FIGS. 5 and 6 show the same set of experiments for total carotenoids at accelerated conditions. FIGS. 7 and 8 show all trans lutein at accelerated conditions. Under accelerated conditions, bay oil, red thyme and pure thyme fared the best for total carotenoids and lutein. Bay oil trans lutein dropped 54% and pure/red thyme oil trans lutein dropped approximately 47% at 20 weeks. It seems the biggest drop occurs during the first 2-week time point then it levels off. All other oils did much worse.
# [4] = Lutein solubility in essential oils; assay type: physicochemical
# Experimental: Lutein dry cake was dissolved in each oil until visibly saturated. The sample was then blanketed with argon and sonicated for ten minutes. If the all the lutein appeared to go into solution, more was added and the process repeated. After the sample was completely saturated, the sample was transferred to a microcentrifuge tube and centrifuged at 14,000 rpm for 10 minutes. If the lutein was not pelleted by centrifugation, the sample was passed through a 0.22 μm filter unit to remove any suspended lutein. The clarified oil was then analyzed for lutein content using UV-VIS and HPLC.
# Lutein content was measured by using an analytical method as follows. Using an analytical balance, 10-20 mg of the sample is weighed into a 100 ml volumetric flask. The sample is diluted to the mark with HEAT (10:6:7:7 v:v:v:v hexane:ethanol:acetone:toluene), and the mixture is agitated or stirred until the sample is dissolved. One ml of this solution is transferred by pipette into a 100 ml amber volumetric flask and diluted to the mark with ethanol. The absorbance of the ethanol solution is measured at 446 nm on a UV/Vis spectrophotometer that has previously been zeroed against ethanol. For analysis by HPLC, 1 ml of the ethanol solution is transferred to an HPLC sample vial and dried using a nitrogen or argon gas stream. The dried sample is dissolved in 1 ml of HPLC mobile phase; sonication may be necessary to complete the solution. The HPLC instrument is set with the following parameters: the column is a 25 cm×4.6 mm nitrile bonded Spherisorb with 5 μm particles; 69 minute run time; flow rate of 1.00 ml/min; back pressure of 64 bar; injection volume of 50 μl; solvent of 75:25:0.35:0.1 (v:v:v:v) hexane/methylene chloride/methanol/diisopropylethylamine (all solvents are HPLC grade); detector is a visible lamp set to 446 nm; and temperature is 22° C. Fifty μl of the ethanol solution is injected into the HPLC column. The peaks at approximately 24, 26, 28.5, 32, 34, 40 and 42 minutes (corresponding to 13, 13′-di-cis-lutein, all-trans-lutein, all-trans-zeaxanthin, 9-cis-lutein, 9′-cis-lutein, 13 and 13′-cis -lutein and 9-cis-zeaxanthin) are integrated and used to determine the HPLC percent area for the lutein peak. The following equations were used for the essential oils: [formula] [formula] [formula]
# % Lutein=% Carotenoids*(% Total HPLC area of lutein/100)
compound,measurement,setting,value
"CC1=C[C@H](O)CC(C)(C)[C@H]1/C=C/C(C)=C/C=C/C(C)=C/C=C/C=C(C)/C=C/C=C(C)/C=C/C1=C(C)C[C@@H](O)CC1(C)C [Lutein, lutein]",reported solubility,[1]; in canola oil,0.029%
same,reported solubility,[1]; in corn oil,0.042%
same,reported solubility,[1]; in safflower oil,0.033%
same,reported solubility,[1]; in soybean oil,0.032%
same,reduction in age-related macular degeneration,[2],57%
same,trans lutein dropped,[3]; in bay oil,54%
same,lutein lost,[3]; in pure thyme oil,22%
same,trans lutein dropped,[3]; in pure/red thyme oil,approximately 47%
same,lutein lost,[3]; in tea tree oil,32%
same,% Lutein,"[4]; in Almond oil, NOW Foods 7660",0.030%
same,% Lutein,"[4]; in Aloe Vera LQX oil, Lebermuth 50-6010-11, lot Sample",0.028%
same,% Lutein,"[4]; in Anise, Spanish oil, Lebermuth 50-6015-11, lot Sample",0.223%
same,% Lutein,"[4]; in Apricot Kernel oil, NOW Foods 7665",0.035%
same,% Lutein,"[4]; in Bay oil, Lebermuth 50-6025-01, lot BA41-0484",1% and 1.001%
same,% Lutein,"[4]; in Bay oil, Lebermuth 50-6025-01, lot Sample",1.152%
same,% Lutein,"[4]; in Bay oil, Spectrum Botanical EO6",1.327%
same,% Lutein,"[4]; in Bergamot Mint oil, Lebermuth 50-6177-01, lot Sample",0.325%
same,% Lutein,"[4]; in Birch, Sweet Southern oil, Lebermuth 50-6035-02, lot Sample",0.236%
same,% Lutein,"[4]; in Cassia, redistilled oil, Lebermuth 50-6060-01, lot Sample",0.639%
same,% Lutein,"[4]; in Castor oil, NOW Foods 7675",0.171%
same,% Lutein,"[4]; in Cedarwood, Texas White oil, Lebermuth 50-6075-01, lot Sample",0.172%
same,% Lutein,"[4]; in Cornmint, Redistilled oil, Lebermuth 50-6100-01, lot CR43-0155",0.951%
same,% Lutein,"[4]; in Cornmint, Redistilled oil, Lebermuth 50-6100-01, lot Sample",1.163%
same,% Lutein,"[4]; in Eucalyptus, 80/85 oil, Lebermuth 50-6105-02, lot Sample",0.672%
same,% Lutein,"[4]; in Eugenol, Lebermuth 50-6110-01, lot Sample",0.517%
same,% Lutein,"[4]; in Frankincense, Olibanum oil, Lebermuth 50-5100-01, lot Sample",0.243%
same,% Lutein,"[4]; in Geranium (Rose), Egyptian oil, Lebermuth 50-6130-11, lot Sample",0.600%
same,% Lutein,"[4]; in Grapefruit, White oil, Lebermuth 50-6140-01, lot Sample",0.071%
same,% Lutein,"[4]; in Grapeseed oil, NOW Foods 7705",0.027%
same,% Lutein,"[4]; in Juniperberry oil, Lebermuth 50-6150-02, lot Sample",0.140%
same,% Lutein,"[4]; in Lemon, California oil, Lebermuth 50-6160-01, lot Sample",0.071%
same,% Lutein,"[4]; in Lime, distilled oil, Lebermuth 50-6170-01, lot Sample",0.213%
same,% Lutein,"[4]; in Nutmeg oil, Lebermuth 50-6190-01, lot Sample",0.122%
same,% Lutein,"[4]; in Peppermint oil, Spectrum Botanical EO64",1.358%
same,% Lutein,"[4]; in Peppermint, Yakima redistilled oil, Lebermuth 50-6225-21, lot PY43-0157",0.945%
same,% Lutein,"[4]; in Peppermint, Yakima redistilled oil, Lebermuth 50-6225-21, lot Sample",1.010%
same,% Lutein,"[4]; in Red Thyme Thymus satureioides oil, Spectrum Botanical, item unspecified",1.0% and 1.084%
same,% Lutein,"[4]; in Red Thyme Thymus vulgaris oil, Spectrum Botanical EO151",4.4% and 4.481%
same,% Lutein,"[4]; in Rosemary, Morrocan oil, Lebermuth 50-6230-03, lot Sample",0.637%
same,% Lutein,"[4]; in Sage, Clary oil, Lebermuth 50-6235-03, lot Sample",0.294%
same,% Lutein,"[4]; in Spearmint oil, Spectrum Botanical EO76",1.325%
same,% Lutein,"[4]; in Spearmint, redistilled oil, Lebermuth 50-6250-11, lot 39SR-0163",1.124%
same,% Lutein,"[4]; in Spearmint, redistilled oil, Lebermuth 50-6250-11, lot Sample",1.001%
same,% Lutein,"[4]; in Tagetes oil, Lebermuth 50-6261-01, lot Sample",0.268%
same,% Lutein,"[4]; in Tea Tree oil, Lebermuth 50-6270-01, lot TX43-0146",0.877%
same,% Lutein,"[4]; in Tea Tree oil, NOW Foods 7625",1.084%
same,% Lutein,"[4]; in Tea Tree oil, NOW Foods 7625, listed as lutein",about 1%
same,% Lutein,"[4]; in Tea Tree oil, Spectrum Botanical EO80",0.942%
same,% Lutein,"[4]; in Thyme oil, NOW Foods 7635",3.582%
same,% Lutein,"[4]; in Thyme oil, NOW Foods 7635, listed as lutein",2.5%
same,% Lutein,"[4]; in Thyme, Pure oil, Lebermuth 50-6275-04, lot TP41-0053",3.453%
same,% Lutein,"[4]; in Thyme, Red oil, Lebermuth 50-6275-02, lot TR43-0158",4.753%
same,% Lutein,"[4]; in Thyme, White oil, Lebermuth 50-6275-01, lot TLC11-T477",3.0% and 3.095%
same,% Lutein,"[4]; in White Thyme oil (from private source), item unspecified",5.068%
same,% Lutein,"[4]; in White Thyme oil, Spectrum Botanical EO82",4.9% and 4.903%
same,% Lutein,"[4]; in Wintergreen, Natural oil, Lebermuth 50-6285-11, lot Sample",0.226%
same,% Lutein,"[4]; in Wormwood, Natural oil, Lebermuth 50-6290-01, lot Sample",0.682%
same,lutein solubility,"[4]; in citrus oils (white grapefruit, lemon, lime)",0.071-0.21%
same,lutein solubility,"[4]; in grapeseed, almond and apricot kernel oils, NOW Foods",0.02-0.03%
same,lutein solubility,[4]; in spearmint oil (text comparison with beta-carotene),~1.0%
same,lutein solubility,"[4]; in thyme oils (red, white, pure)",3.0-4.7% and 3.5-5% and 3-5%

# — patent US6844020B2, “Solutions of carotenoids for use in foods and personal care products” (Kemin Foods, L.C., priority 2002, dated 2005)
